Test systems include DU-145 prostate; EKVX NSCLC; HCT-116 colon; HS 578T breast; MDA-N; NCI/ADR-RES ovarian; RPMI-8226 leukemia; SF-268 CNS; SF-295 CNS; SF-539 CNS; U251 CNS; UACC-62 melanoma; HOP-92 NSCLC.
Assay in all cases: NCI-60 cell line screen, 48 h

Molecules are shown by their SMILES.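 These data come from cells grown in 96-well plates and exposed to compound for 48 hours at five concentrations. TGI: concentration producing complete growth inhibition.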

As for `Clc1ccc(CCN[C@H]2CCCC[C@H]2N2CCCC2)cc1Cl`, the TGI in the assay on DU-145 prostate was 59.8 µM; in the assay on EKVX NSCLC, greater than 100 µM; in the assay on HCT-116 colon it was greater than 100 µM; in the assay on HS 578T breast, greater than 100 µM; in the assay with MDA-N, 38.5 µM; in the assay with NCI/ADR-RES ovarian, greater than 100 µM. Moreover, the TGI was 97.1 µM with RPMI-8226 leukemia; greater than 100 µM in the assay on SF-268 CNS; 30.2 µM in the assay with SF-295 CNS; 75.3 µM with SF-539 CNS; greater than 100 µM in the assay on U251 CNS; 34.9 µM in the assay with UACC-62 melanoma.

`COc1ccc2c(c1)CCCN1CCc3ccccc3C21` (configuration not stated): the TGI in the assay with DU-145 prostate was greater than 100 µM; with EKVX NSCLC, greater than 100 µM; in the assay with HCT-116 colon, 72.1 µM; with HOP-92 NSCLC it was greater than 100 µM; in the assay on HS 578T breast, 94 µM; with MDA-N, 52.9 µM. The TGI in the assay with NCI/ADR-RES ovarian is 49.5 µM; in the assay on SF-268 CNS, greater than 100 µM; in the assay with SF-295 CNS it was 79.1 µM; in the assay on SF-539 CNS, 75.8 µM; with U251 CNS, 95.4 µM; in the assay on UACC-62 melanoma, 83.1 µM.

As for `CCCc1cc(COC)c(C#N)c(=O)[nH]1`, the TGI in the assay on DU-145 prostate, with EKVX NSCLC, with HCT-116 colon, in the assay with HS 578T breast, with MDA-N and with NCI/ADR-RES ovarian was greater than 100 µM in each case. The TGI in the assay on RPMI-8226 leukemia, with SF-268 CNS, in the assay with SF-295 CNS, with SF-539 CNS, in the assay with U251 CNS and in the assay on UACC-62 melanoma was greater than 100 µM throughout.

`COc1ccc(-c2c3c(n(C4OC(CO)C(O)C(O)C4O)c(=S)c2C#N)CCCC3)cc1` (configuration not stated): the TGI with EKVX NSCLC, in the assay with HCT-116 colon, with HS 578T breast, in the assay on MDA-N, in the assay on NCI/ADR-RES ovarian and in the assay on SF-295 CNS was greater than 100 µM each time. In addition, the TGI in the assay on SF-539 CNS and with UACC-62 melanoma was greater than 100 µM in each case.

For `O=[N+]([O-])c1ccc(-n2nc3ccc4c(no[n+]4[O-])c3n2)cc1`, the TGI in the assay on DU-145 prostate, in the assay with EKVX NSCLC, in the assay with HCT-116 colon, in the assay on HOP-92 NSCLC, with HS 578T breast and in the assay with MDA-N was greater than 100 µM throughout. The TGI in the assay on NCI/ADR-RES ovarian, in the assay on SF-268 CNS, in the assay with SF-295 CNS, in the assay with SF-539 CNS, with U251 CNS and in the assay with UACC-62 melanoma was greater than 100 µM in each case.

With `CC(C)CC(N)C(=O)Nc1ccc2ccccc2c1` (configuration not stated), the TGI with DU-145 prostate, in the assay with EKVX NSCLC, with HCT-116 colon, in the assay on HS 578T breast, in the assay on MDA-N and with NCI/ADR-RES ovarian was greater than 100 µM in each case. Besides, the TGI with RPMI-8226 leukemia, in the assay on SF-268 CNS, in the assay with SF-295 CNS, with SF-539 CNS, in the assay on U251 CNS and in the assay with UACC-62 melanoma was greater than 100 µM each time.

As to `CN(CCCNC(=O)c1cn(C)c2c1Cc1ccccc1-2)CCCNC(=O)c1cn(C)c2c1Cc1ccccc1-2`, the TGI in the assay on EKVX NSCLC amounted to 22.6 µM; in the assay with HCT-116 colon it was 22.2 µM; with HOP-92 NSCLC, 7.89 µM; with HS 578T breast, 25.2 µM; in the assay on MDA-N it was 12.3 µM; in the assay with NCI/ADR-RES ovarian, 28 µM. In addition, the TGI is greater than 100 µM in the assay with RPMI-8226 leukemia; 21.3 µM with SF-268 CNS; 26.2 µM in the assay with SF-295 CNS; 31.8 µM in the assay on SF-539 CNS; 20.2 µM in the assay on U251 CNS; 27.6 µM in the assay with UACC-62 melanoma.

Turning to `CCOC(=O)c1c(NC(=S)Nc2ccc(Cl)cc2)sc2c1CCN(C)C2`, the TGI in the assay with DU-145 prostate, with EKVX NSCLC, in the assay on HCT-116 colon, in the assay with HS 578T breast, in the assay with MDA-N and in the assay with NCI/ADR-RES ovarian was greater than 100 µM each time. Besides, the TGI in the assay with RPMI-8226 leukemia, in the assay on SF-268 CNS, with SF-295 CNS, in the assay with SF-539 CNS and in the assay on UACC-62 melanoma was greater than 100 µM throughout.

Take `COc1cccc(C2c3cc4c(cc3OC(NNS(=O)(=O)c3ccc(C)cc3)C2C)OCO4)c1OC` (configuration not stated): the TGI is 7.61 µM in the assay with DU-145 prostate; greater than 100 µM in the assay on EKVX NSCLC; 4.56 µM in the assay with HCT-116 colon; 7.18 µM in the assay with HOP-92 NSCLC; 21.1 µM with HS 578T breast; greater than 100 µM with MDA-N. Besides, the TGI was 6.86 µM in the assay on RPMI-8226 leukemia; greater than 100 µM with SF-268 CNS; greater than 100 µM in the assay with SF-295 CNS; 11.9 µM in the assay with SF-539 CNS; 16.9 µM in the assay on U251 CNS; 33.2 µM in the assay with UACC-62 melanoma.

For the compound `COC(=O)CCNC(=O)OCc1ccccc1`, the TGI with DU-145 prostate, in the assay with EKVX NSCLC, in the assay with HCT-116 colon, in the assay on HS 578T breast, in the assay with MDA-N and in the assay with NCI/ADR-RES ovarian was greater than 100 µM each time. Further, the TGI in the assay on RPMI-8226 leukemia, in the assay with SF-268 CNS, with SF-295 CNS, in the assay with SF-539 CNS, in the assay on U251 CNS and in the assay on UACC-62 melanoma was greater than 100 µM throughout.

On to `CN(C)N1C(=O)S/C(=C\c2ccc([N+](=O)[O-])cc2)C1=O`, for which the TGI in the assay on DU-145 prostate, in the assay on EKVX NSCLC, in the assay with HCT-116 colon, with HOP-92 NSCLC, in the assay with HS 578T breast and in the assay on MDA-N was greater than 100 µM in each case. In addition, the TGI in the assay on NCI/ADR-RES ovarian, in the assay with SF-268 CNS, with SF-295 CNS, in the assay with SF-539 CNS, in the assay with U251 CNS and with UACC-62 melanoma was greater than 100 µM each time.

Turning to `CCCSc1ccc2[nH]c(N3C(=O)/C(=C/c4ccc(SC)cc4)N=C3c3ccccc3)cc2c1`, the TGI is greater than 50 µM in the assay with DU-145 prostate; greater than 50 µM in the assay on EKVX NSCLC; greater than 50 µM with HCT-116 colon; greater than 50 µM in the assay on HOP-92 NSCLC; greater than 50 µM in the assay on HS 578T breast; 17.5 µM in the assay with MDA-N. Besides, the TGI with NCI/ADR-RES ovarian is greater than 50 µM; in the assay with SF-268 CNS it was greater than 50 µM; with SF-295 CNS, greater than 50 µM; in the assay on SF-539 CNS it was 48.8 µM; with U251 CNS it was greater than 50 µM; in the assay with UACC-62 melanoma, greater than 50 µM.

In the case of `COC(=O)c1cc(NC(=O)Cc2c[nH]c3ccccc23)cn1C`, the TGI with DU-145 prostate, in the assay with EKVX NSCLC, with HCT-116 colon, with HS 578T breast, in the assay on MDA-N and with NCI/ADR-RES ovarian was greater than 100 µM in each case. Also, the TGI was 63.9 µM in the assay with RPMI-8226 leukemia; greater than 100 µM in the assay with SF-268 CNS; greater than 100 µM with SF-295 CNS; greater than 100 µM in the assay with SF-539 CNS; greater than 100 µM in the assay with U251 CNS; greater than 100 µM in the assay with UACC-62 melanoma.

`Nc1ncnc2c1ncn2C1CCC(CP(=O)(O)O)C1` (configuration not stated): the TGI in the assay with DU-145 prostate, with EKVX NSCLC, with HCT-116 colon, in the assay on HS 578T breast, in the assay on MDA-N and in the assay with NCI/ADR-RES ovarian was greater than 100 µM each time. Besides, the TGI in the assay on RPMI-8226 leukemia, in the assay with SF-268 CNS, in the assay with SF-295 CNS, with SF-539 CNS, with U251 CNS and with UACC-62 melanoma was greater than 100 µM in each case.

As to `O=C1NN(Cc2ccccc2)C(=O)N2CCC[C@@H]12`, the TGI with DU-145 prostate, in the assay with EKVX NSCLC, with HCT-116 colon, in the assay on HOP-92 NSCLC, in the assay on HS 578T breast and with MDA-N was greater than 100 µM each time. The TGI in the assay on NCI/ADR-RES ovarian, in the assay with SF-268 CNS, with SF-295 CNS, with SF-539 CNS and with UACC-62 melanoma was greater than 100 µM throughout.

On to `CCOC(=O)c1nc2ccc(C(F)(F)F)cc2nc1NCc1ccc(OC)c(OC)c1`, for which the TGI in the assay with EKVX NSCLC, in the assay on HCT-116 colon, with HOP-92 NSCLC, in the assay on HS 578T breast, in the assay with MDA-N and in the assay with NCI/ADR-RES ovarian was greater than 100 µM throughout. For the same compound, the TGI in the assay on RPMI-8226 leukemia, in the assay with SF-268 CNS, in the assay on SF-295 CNS, with SF-539 CNS, in the assay on U251 CNS and in the assay on UACC-62 melanoma was greater than 100 µM in each case.

Consider `O=Cc1cc(C(=O)OCc2ccccc2)n(S(=O)(=O)c2ccccc2)c1`, for which the TGI with DU-145 prostate was greater than 100 µM; with EKVX NSCLC, 94.4 µM; in the assay on HCT-116 colon, 25.7 µM; with HS 578T breast, 49.2 µM; with MDA-N, 30.3 µM; in the assay with NCI/ADR-RES ovarian it was 98.6 µM. The TGI with SF-268 CNS worked out at 65.5 µM; in the assay with SF-295 CNS, 29 µM; in the assay on SF-539 CNS, 28.6 µM; in the assay on UACC-62 melanoma, 31.6 µM.

As to `O=C(NNC(=S)NC1CCCCC1)C12CC3CC(CC(C3)C1)C2`, the TGI with DU-145 prostate, with HCT-116 colon, in the assay with HS 578T breast, in the assay on MDA-N, with NCI/ADR-RES ovarian and in the assay on RPMI-8226 leukemia was greater than 100 µM each time. Further, the TGI in the assay with SF-268 CNS, in the assay on SF-295 CNS, in the assay on SF-539 CNS, in the assay on U251 CNS and in the assay on UACC-62 melanoma was greater than 100 µM throughout.

The values above are taken from PubChem BioAssay (NCI).
